The source of these data is patent US9421254B2, “Immunostimulatory combinations of TLR ligands and methods of use” (The United States of America, as represented by the …, priority 2007, dated 2016).

Entries after “also recorded” stand apart in the source; their conditions may differ.

Assay [1] relates to popliteal LN MHC class II+CD11c+ DCs. As to the kind of experiment: DC activation in popliteal LNs after footpad immunization with TLR ligands. In kind it is in vivo, mice. The note with it: FIG. 5D. The protocol: Mice were immunized in the footpads with MALP-2, PolyI:C and CpG singly or pairwise. Paired popliteal LN cells were isolated 36 hours later for assay by flow cytometry. […] Panel (D) is a graph showing CD86 expression on DCs.
If this hypothesis were true, it may be expected that use of synergistic combinations of TLRs as adjuvant would result in similar activation of DCs in vivo. To test this hypothesis, DCs were isolated from popliteal LNs following footpad immunization with TLR ligands and examined ex vivo. […] Therefore, the interplay of TLRs in activating DCs in vivo is nonrandom and mediated through potentiating MyD88-dependent cytokines that could account for the activation of specific T cells.

The test system of assay [2] is BMDCs. As to the kind of experiment: Secreted cytokines/chemokines from BMDCs treated in vitro with TLR ligands (multiplex). The assay is classed as cell-based, mouse. The note with it: FIG. 3D.
Assay [3] relates to BMDCs. As to the kind of experiment: Intracellular IL-12 and CD86 on BMDCs treated in vitro with TLR ligands (flow cytometry). The note with it: for synergy with PolyI:C in IL-12 production: TLR2 ligand combined with PolyI:C; for inducing IL-12 production from DCs / upregulation of CD86 expression: TLR4 ligand alone; for inducing IL-12 production from DCs: relative to MALP-2+PolyI:C and PolyI:C+CpG; for upregulation of CD86 expression: relative to PolyI:C, FIG. 9B.

The next assay concerns purified T cells. As to the kind of experiment: Purified T cells cultured with recombinant cytokines/chemokines (CD69). In kind it is cell-based, mouse. The note with it: added to MyD88-dependent cytokines; FIG. 12B. On the procedure:
Panel (A) is a graph showing the results when BMDC pretreated with MALP-2+PolyI:C were cultured with purified T cells in the presence of neutralizing antibodies against cytokines as indicated. CD69+ T cells were measured 24 hours later. Panel (B) is a graph showing the results when purified T cells were culture in the presence of IL-12 (25 ng/ml), TNFa (10 ng/ml), MIP-1a (50 ng/ml) and IP-10 (25 ng/ml) singly or in combinations as indicated. CD69+CD8+ T cells were measured after 24 hours of treatment.
As there are several MyD88-dependent inflammatory cytokines that are produced downstream of the JNK/c-Jun pathway, blocking one of these cytokines may not be expected to abolish the synergy effect.

With “macrophage activating lipoprotein (MALP-2)”, the “increase in CD86 by LN DCs when ligand included with PolyI:C” value in assay [1] is given as “no significant increases”. For the same molecule, the “further increase in IP-10 production compared to PolyI:C alone” value in the assay on BMDCs [2] (ligand added to PolyI:C) was “did not result in a further increase”. For the same molecule, the “synergy with PolyI:C in IL-12 production” value with BMDCs [3] (FIG. 9A) is “did”. Moreover, the “further increase in CD86 expression compared to PolyI:C alone” value in the assay with BMDCs [3] (ligand added to PolyI:C, FIG. 3C) is given as “did not result in a further increase”.

Lipoteichoic acids [LTA]: in the assay with BMDCs [3] (FIG. 9A), the “synergy with PolyI:C in IL-12 production” value is “could also act synergistically and did”.

`CCCCCCCCCCCC(=O)CC(=O)N[C@H](COCC[C@@H](CCCCCCC)OC(=O)CCCCCCCCCCC)COP(=O)(O)OCCNC(=O)NCCOP(=O)(O)OC[C@@H](COCC[C@@H](CCCCCCC)OC(=O)CCCCCCCCCCC)NC(=O)CC(=O)CCCCCCCCCCC` [E6020]: in the assay with BMDCs [3], the “inducing IL-12 production from DCs” value is given as “equivalent” and the “upregulation of CD86 expression” value was “efficacy equivalent to PolyI:C”.

For PAM3CSK4, the “synergy with PolyI:C in IL-12 production” value with BMDCs [3] (FIG. 9A) is recorded as “could not; also recorded: did not synergize”.

Turning to monophosphoryl lipid A [MPL], in the assay on BMDCs [3], the “inducing IL-12 production from DCs” value is “equivalent” and the “upregulation of CD86 expression” value is given as “efficacy equivalent to PolyI:C”.

As to “IP-10: Recombinant IP-10 protein purchased from Peprotech”, the “enhancement of the CD69 response already induced by the MyD88-dependent cytokines” value with purified T cells is reported as “did not significantly enhance”.

On to lipopolysaccharide [LPS], for which, in the assay on BMDCs [3], the “inducing IL-12 production from DCs” value is given as “equivalent” and the “upregulation of CD86 expression” value is recorded as “efficacy equivalent to PolyI:C”.

Consider “polyinosine-polycytidylic acid [PolyI:C]”, for which, in assay [1] (ligand alone), the “expression of CD86 by LN DCs” value was “upregulated”. The “IP-10 production by DCs” value with BMDCs [2] (ligand alone) is on record as “produce IP-10”. Moreover, the “IL-12 production on addition to the TLR4 stimulation” value in the assay on BMDCs [3] (FIG. 9A) was “did not further enhance”. Further, in the assay with BMDCs [3] (ligand alone, FIG. 3C), the “CD86 expression on DCs” value was “upregulate CD86 expression”.
